In patent US11497752B2, “Compounds and uses thereof” (Foghorn Therapeutics Inc., priority 2018, dated 2022):

Tests used:
BRG-1 = BRG-1 (Homo sapiens, UniProt P51532); test: ATPase catalytic activity of BRG-1 (ADP-Glo in vitro biochemical assay)
BRM = BRM (Homo sapiens, UniProt P51531); test: ATPase catalytic activity of BRM (ADP-Glo in vitro biochemical assay)
BRM, sequence (P51531 whole entry): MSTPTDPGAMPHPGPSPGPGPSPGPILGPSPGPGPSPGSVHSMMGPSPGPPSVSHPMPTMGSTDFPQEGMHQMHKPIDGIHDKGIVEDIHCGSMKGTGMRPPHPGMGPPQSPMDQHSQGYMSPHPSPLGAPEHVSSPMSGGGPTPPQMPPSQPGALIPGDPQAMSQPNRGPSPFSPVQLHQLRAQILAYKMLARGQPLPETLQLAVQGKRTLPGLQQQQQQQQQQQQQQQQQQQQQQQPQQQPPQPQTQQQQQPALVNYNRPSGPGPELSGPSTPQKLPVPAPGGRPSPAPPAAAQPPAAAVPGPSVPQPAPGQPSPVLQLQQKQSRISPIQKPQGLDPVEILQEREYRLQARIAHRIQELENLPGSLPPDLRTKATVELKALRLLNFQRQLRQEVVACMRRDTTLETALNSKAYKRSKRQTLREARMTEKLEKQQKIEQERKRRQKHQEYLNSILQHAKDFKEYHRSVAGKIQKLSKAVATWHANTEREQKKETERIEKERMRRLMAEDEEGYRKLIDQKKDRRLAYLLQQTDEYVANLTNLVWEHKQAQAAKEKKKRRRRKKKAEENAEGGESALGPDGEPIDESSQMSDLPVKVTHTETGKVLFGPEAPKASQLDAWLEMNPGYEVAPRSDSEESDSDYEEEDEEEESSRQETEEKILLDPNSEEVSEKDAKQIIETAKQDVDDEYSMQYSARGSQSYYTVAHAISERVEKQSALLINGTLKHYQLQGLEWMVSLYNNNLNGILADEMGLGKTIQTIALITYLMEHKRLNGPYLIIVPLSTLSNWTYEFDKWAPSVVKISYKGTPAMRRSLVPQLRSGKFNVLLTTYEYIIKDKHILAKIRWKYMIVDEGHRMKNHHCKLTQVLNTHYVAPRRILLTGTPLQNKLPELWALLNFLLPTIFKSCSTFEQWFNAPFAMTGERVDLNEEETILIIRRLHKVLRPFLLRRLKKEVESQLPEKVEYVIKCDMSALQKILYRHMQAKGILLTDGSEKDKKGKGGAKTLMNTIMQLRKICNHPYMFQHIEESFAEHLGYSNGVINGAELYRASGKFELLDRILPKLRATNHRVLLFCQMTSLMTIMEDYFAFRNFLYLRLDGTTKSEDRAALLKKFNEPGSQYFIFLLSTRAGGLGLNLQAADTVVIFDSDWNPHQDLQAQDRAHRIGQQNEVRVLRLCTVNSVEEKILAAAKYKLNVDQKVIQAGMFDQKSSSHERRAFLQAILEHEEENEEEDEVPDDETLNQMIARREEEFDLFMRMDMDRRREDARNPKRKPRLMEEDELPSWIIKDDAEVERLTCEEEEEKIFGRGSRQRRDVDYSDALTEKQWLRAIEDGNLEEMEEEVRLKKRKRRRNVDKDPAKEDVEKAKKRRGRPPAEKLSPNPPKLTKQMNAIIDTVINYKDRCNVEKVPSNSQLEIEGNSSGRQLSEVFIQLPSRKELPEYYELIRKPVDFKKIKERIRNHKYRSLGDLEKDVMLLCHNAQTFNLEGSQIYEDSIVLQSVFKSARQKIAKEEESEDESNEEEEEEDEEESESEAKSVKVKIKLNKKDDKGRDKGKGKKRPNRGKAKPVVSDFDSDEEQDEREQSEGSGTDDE

BRG-1, sequence (P51532 whole entry): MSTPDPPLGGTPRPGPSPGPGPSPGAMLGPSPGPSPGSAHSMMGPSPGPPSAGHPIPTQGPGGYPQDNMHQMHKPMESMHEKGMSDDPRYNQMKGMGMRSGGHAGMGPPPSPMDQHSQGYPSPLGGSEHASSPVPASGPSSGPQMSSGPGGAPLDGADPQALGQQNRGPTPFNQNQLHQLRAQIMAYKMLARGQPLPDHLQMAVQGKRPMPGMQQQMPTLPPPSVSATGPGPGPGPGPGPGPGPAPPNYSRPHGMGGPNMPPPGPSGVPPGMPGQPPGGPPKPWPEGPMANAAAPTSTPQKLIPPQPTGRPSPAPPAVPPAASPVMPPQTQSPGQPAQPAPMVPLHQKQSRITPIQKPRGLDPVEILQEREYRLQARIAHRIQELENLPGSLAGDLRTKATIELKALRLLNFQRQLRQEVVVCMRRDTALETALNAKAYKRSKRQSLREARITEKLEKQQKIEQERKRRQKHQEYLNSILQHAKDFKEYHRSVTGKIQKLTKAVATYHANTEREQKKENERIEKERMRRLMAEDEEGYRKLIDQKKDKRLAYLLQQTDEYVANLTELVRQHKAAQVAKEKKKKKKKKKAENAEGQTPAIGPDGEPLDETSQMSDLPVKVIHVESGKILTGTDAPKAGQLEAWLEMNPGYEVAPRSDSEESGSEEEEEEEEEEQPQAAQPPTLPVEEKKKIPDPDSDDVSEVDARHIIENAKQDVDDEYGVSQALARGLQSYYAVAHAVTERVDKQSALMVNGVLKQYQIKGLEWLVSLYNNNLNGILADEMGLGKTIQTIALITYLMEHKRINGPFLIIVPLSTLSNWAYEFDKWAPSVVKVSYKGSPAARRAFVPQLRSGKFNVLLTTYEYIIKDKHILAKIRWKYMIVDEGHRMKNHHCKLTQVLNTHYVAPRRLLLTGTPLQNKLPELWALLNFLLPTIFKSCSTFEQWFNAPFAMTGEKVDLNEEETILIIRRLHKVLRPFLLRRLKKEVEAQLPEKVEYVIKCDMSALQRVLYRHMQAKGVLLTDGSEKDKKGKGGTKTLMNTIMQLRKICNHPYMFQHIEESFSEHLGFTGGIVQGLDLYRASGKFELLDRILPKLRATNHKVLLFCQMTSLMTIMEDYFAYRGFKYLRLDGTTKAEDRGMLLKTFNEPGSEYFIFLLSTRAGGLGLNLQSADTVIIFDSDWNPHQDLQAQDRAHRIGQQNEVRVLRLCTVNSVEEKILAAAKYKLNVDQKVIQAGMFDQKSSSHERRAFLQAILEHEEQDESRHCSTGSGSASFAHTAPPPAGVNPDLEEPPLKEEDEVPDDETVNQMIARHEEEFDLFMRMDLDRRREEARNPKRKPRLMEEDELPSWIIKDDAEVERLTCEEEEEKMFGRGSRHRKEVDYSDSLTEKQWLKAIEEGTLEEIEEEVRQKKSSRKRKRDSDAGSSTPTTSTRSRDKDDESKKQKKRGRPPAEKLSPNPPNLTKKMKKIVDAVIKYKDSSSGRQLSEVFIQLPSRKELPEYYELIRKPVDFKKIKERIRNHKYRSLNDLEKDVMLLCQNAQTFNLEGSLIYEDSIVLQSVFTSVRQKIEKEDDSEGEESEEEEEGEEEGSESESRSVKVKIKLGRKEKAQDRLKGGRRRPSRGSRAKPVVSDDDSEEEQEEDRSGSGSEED

| SMILES | IC50 (BRG-1) | BRG1 Max % Inhibition (BRG-1; Table 6) | IC50 (BRM) | BRM Max % Inhibition (BRM; Table 6) | BRG1 Max % Inhibition (BRG-1; Table 5) | BRM Max % Inhibition (BRM; Table 5) |
| --- | --- | --- | --- | --- | --- | --- |
| CN(C)C(=O)c1ccc(-c2cccc(-c3csc(NC(=O)CNC(=O)c4ccc(N)cc4)n3)c2)cc1 [Compound 137, 3′-(2-(2-(4-aminobenzamido)acetamido)thiazol-4-yl)-N,N-dimethyl-[1,1′-biphenyl]-4-carboxamide] | 100 to 1000 nM | >95% | 100 to 1000 nM | >90% |  |  |
| CN(C)S(=O)(=O)c1cccc(C(=O)NCC(=O)Nc2nc(-c3ccccc3C#N)cs2)c1 [Compound 27, N-(2-((4-(2-cyanophenyl)thiazol-2-yl)amino)-2-oxoethyl)-3-(N,N-dimethylsulfamoyl)benzamide] | > 10000 nM |  | > 10000 nM |  | >30% | >60% |
| CN(C)S(=O)(=O)c1cccc(C(=O)NCC(=O)Nc2nc(C3CCCCC3)cs2)c1 [Compound 34, N-[2-[(4-cyclohexylthiazol-2-yl)amino]-2-oxo-ethyl]-3-(dimethylsulfamoyl)benzamide] | > 10000 nM |  | > 10000 nM |  | >60% | >90% |
| Nc1ccc(C(=O)NCC(=O)Nc2nc(-c3ccc(O)cc3)cs2)cc1 [Compound 115, 4-amino-N-(2-((4-(4-hydroxyphenyl)thiazol-2-yl)amino)-2-oxoethyl)benzamide] | 100 to 1000 nM | >90% | 100 to 1000 nM | >90% |  |  |
| Nc1ccc(C(=O)NCC(=O)Nc2nc(-c3cccc(-c4ccc(CO)cc4)c3)cs2)cc1 [Compound 153, 4-amino-N-(2-((4-(4′-(hydroxymethyl)-[1,1′-biphenyl]-3-yl)thiazol-2-yl)amino)-2-oxoethyl)benzamide] | < 100 nM | >80% | < 100 nM | >90% |  |  |
| O=C(CNC(=O)c1ccc2c(c1)CCCN2)Nc1nc(-c2cccc(-c3ccncc3)c2)cs1 [Compound 99, N-(2-oxo-2-((4-(3-(pyridin-4-yl)phenyl)thiazol-2-yl)amino)ethyl)-1,2,3,4-tetrahydroquinoline-6-carboxamide] | < 100 nM | >95% | < 100 nM | >90% |  |  |
| O=C(N[C@@H](CCc1ccccc1)C(=O)Nc1nc(-c2ccccc2)cs1)c1ccccc1 [Compound 49, N-[(1S)-3-phenyl-1-[(4-phenylthiazol-2-yl)carbamoyl]propyl]benzamide] | 1000 to 10000 nM |  | 1000 to 10000 nM |  |  |  |
| CNC(=O)c1cccc(-c2cccc(-c3csc(NC(=O)CNC(=O)c4ccc(N)cc4)n3)c2)c1 [Compound 144, 3-[3-[2-[[2-[(4-aminobenzoyl)amino]acetyl]amino]thiazol-4-yl]phenyl]-N-methyl-benzamide] | 100 to 1000 nM | >95% | 100 to 1000 nM | >95% |  |  |
| Nc1ccc(C(=O)NCC(=O)Nc2nc(-c3ccc4c(c3)OCC4)cs2)cc1 [Compound 112, 4-amino-N-(2-((4-(2,3-dihydrobenzofuran-6-yl)thiazol-2-yl)amino)-2-oxoethyl)benzamide] | 100 to 1000 nM | >80% | 100 to 1000 nM | >90% |  |  |
| CSCC[C@H](NC(=O)c1ccc(CO)cc1)C(=O)Nc1nc(-c2ccccc2)cs1 [Compound 85, 4-(hydroxymethyl)-N-[(1S)-3-methylsulfanyl-1-[(4-phenylthiazol-2-yl)carbamoyl]propyl]benzamide] | 1000 to 10000 nM |  | 1000 to 10000 nM |  | >90% | >95% |

Next, values leading:

| IC50 (BRG-1) | BRG1 Max % Inhibition (BRG-1; Table 6) | IC50 (BRM) | BRM Max % Inhibition (BRM; Table 6) | BRG1 Max % Inhibition (BRG-1; Table 5) | BRM Max % Inhibition (BRM; Table 5) | SMILES |
| --- | --- | --- | --- | --- | --- | --- |
| < 100 nM | >95% | < 100 nM | >95% |  |  | Nc1ccc(C(=O)NCC(=O)Nc2nc(-c3cccc(-c4ccn(C5CCOCC5)n4)c3)cs2)cc1 [Compound 162, 4-amino-N-(2-oxo-2-((4-(3-(1-(tetrahydro-2H-pyran-4-yl)-1H-pyrazol-3-yl)phenyl)thiazol-2-yl)amino)ethyl)benzamide] |
| 100 to 1000 nM | >95% | 100 to 1000 nM | >90% |  |  | Nc1ccc(C(=O)NCC(=O)Nc2nc(-c3cccc(-c4ccnc(N5CCNCC5)c4)c3)cs2)cc1 [Compound 159, 4-amino-N-(2-oxo-2-((4-(3-(2-(piperazin-1-yl)pyridin-4-yl)phenyl)thiazol-2-yl)amino)ethyl)benzamide] |
| 100 to 1000 nM | >90% | 100 to 1000 nM | >80% |  |  | Nc1cnc(C(=O)NCC(=O)Nc2nc(-c3cccc(-c4ccncc4)c3)cs2)nc1 [Compound 193, 5-amino-N-[2-oxo-2-[[4-[3-(4-pyridyl)phenyl]thiazol-2-yl]amino]ethyl]pyrimidine-2-carboxamide] |
| < 100 nM | >95% | < 100 nM | >95% |  |  | Nc1ccc(C(=O)NCC(=O)Nc2nc(-c3cccc(-c4ccnc(C5(C(=O)O)CC5)c4)c3)cs2)cc1 [Compound 219, 1-[4-[3-[2-[[2-[(4-aminobenzoyl)amino]acetyl]amino]thiazol-4-yl]phenyl]-2-pyridyl]cyclopropanecarboxylic acid] |
| 100 to 1000 nM | >95% | 100 to 1000 nM | >95% |  |  | CC(C)(O)Cn1ccc(-c2cccc(-c3csc(NC(=O)CNC(=O)c4ccc(N)cc4)n3)c2)n1 [Compound 229, 4-amino-N-[2-[[4-[3-[1-(2-hydroxy-2-methyl-propyl)pyrazol-3-yl]phenyl]thiazol-2-yl]amino]-2-oxo-ethyl]benzamide] |
| < 100 nM | >90% | < 100 nM | >95% |  |  | N#Cc1cccc(-c2cccc(-c3csc(NC(=O)CNC(=O)c4ccc(N)cc4)n3)c2)c1 [Compound 157, 4-amino-N-(2-((4-(3′-cyano-[1,1′-biphenyl]-3-yl)thiazol-2-yl)amino)-2-oxoethyl)benzamide] |
| < 100 nM | >70% | < 100 nM | >80% |  |  | Nc1ccc(C(=O)NCC(=O)Nc2nc(-c3cccc(-c4ccncc4)c3)cs2)nc1 [Compound 184, 5-amino-N-(2-oxo-2-((4-(3-(pyridin-4-yl)phenyl)thiazol-2-yl)amino)ethyl)picolinamide] |
| 100 to 1000 nM | >95% | 100 to 1000 nM | >95% |  |  | NCCn1ccc(-c2cccc(-c3csc(NC(=O)CNC(=O)c4ccc(N)cc4)n3)c2)cc1=O [Compound 166, 4-amino-N-(2-((4-(3-(1-(2-aminoethyl)-2-oxo-1,2-dihydropyridin-4-yl)phenyl)thiazol-2-yl)amino)-2-oxoethyl)benzamide] |
| 100 to 1000 nM | >80% | 100 to 1000 nM | >80% |  |  | CN1CCN(c2cc(-c3cccc(-c4csc(NC(=O)CNC(=O)c5ccc(N)cc5)n4)c3)ccn2)CC1 [Compound 190, 4-amino-N-[2-[[4-[3-[2-(4-methylpiperazin-1-yl)-4-pyridyl]phenyl]thiazol-2-yl]amino]-2-oxo-ethyl]benzamide] |
| 100 to 1000 nM | >90% | < 100 nM | >95% |  |  | COC(=O)C(C)(C)c1cc(-c2cccc(-c3csc(NC(=O)CNC(=O)c4ccc(N)cc4)n3)c2)ccn1 [Compound 182, methyl 2-(4-(3-(2-(2-(4-aminobenzamido)acetamido)thiazol-4-yl)phenyl)pyridin-2-yl)-2-methylpropanoate] |
